# According to the kinase profiling compilation of Christmann-Franck et al. (2016):
# Legend:
# Assay in all cases: KINOMEscan competition binding
# Conditions in all cases: compound 10.0 µM
# TAOK1 (human) = TAOK1 (human) (UniProt Q7L7X3)
# CDK19 (human) = CDK19 (human) (UniProt Q9BWU1)
# PI4KB (human) = PI4KB (human) (UniProt Q9UBF8)
# NEK1 (human) = NEK1 (human) (UniProt Q96PY6)
# DYRK1A (human) = DYRK1A (human) (UniProt Q13627)
# AURKA (human) = AURKA (human) (UniProt O14965)
# PRKACA (human) = PRKACA (human) (UniProt P17612)
# NIM1 (human) = NIM1 (human) (UniProt Q8IY84)
# HUNK (human) = HUNK (human) (UniProt P57058)
# RPS6KA1 KD2 (human) = RPS6KA1 KD2 (human) (UniProt Q15418)
# EGFR (human) = EGFR (human) (UniProt P00533)
# [1] = test system: KIT (human), P10721 [A829P]
# [2] = biological target: JAK1 JH2 pseudokinase (human) (UniProt P23458)
# CDC2L2 (human) = CDC2L2 (human) (UniProt Q9UQ88)
# MAP3K2 (human) = MAP3K2 (human) (UniProt Q9Y2U5)
# MAP3K2 (human), sequence (Q9Y2U5 whole entry, looked up): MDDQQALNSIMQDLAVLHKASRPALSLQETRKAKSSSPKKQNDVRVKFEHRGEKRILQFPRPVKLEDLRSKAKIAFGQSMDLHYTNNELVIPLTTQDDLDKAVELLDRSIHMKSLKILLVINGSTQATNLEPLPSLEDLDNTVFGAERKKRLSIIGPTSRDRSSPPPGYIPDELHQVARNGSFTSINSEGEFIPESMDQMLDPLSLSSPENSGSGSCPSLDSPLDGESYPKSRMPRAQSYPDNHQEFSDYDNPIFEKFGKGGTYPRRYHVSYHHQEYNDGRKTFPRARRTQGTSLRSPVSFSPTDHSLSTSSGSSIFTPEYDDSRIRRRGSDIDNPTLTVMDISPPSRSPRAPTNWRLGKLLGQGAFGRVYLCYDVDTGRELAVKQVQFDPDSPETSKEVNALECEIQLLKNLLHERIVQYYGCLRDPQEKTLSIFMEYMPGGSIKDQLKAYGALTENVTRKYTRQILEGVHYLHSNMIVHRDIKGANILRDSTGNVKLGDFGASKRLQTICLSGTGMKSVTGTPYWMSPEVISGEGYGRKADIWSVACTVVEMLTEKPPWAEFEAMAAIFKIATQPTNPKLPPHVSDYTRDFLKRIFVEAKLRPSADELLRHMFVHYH
# FYN (human) = FYN (human) (UniProt P06241)
# MYLK2 (human) = MYLK2 (human) (UniProt Q9H1R3)
# EPHA5 (human) = EPHA5 (human) (UniProt P54756)
# ROS1 (human) = ROS1 (human) (UniProt P08922)
# GSK3A (human) = GSK3A (human) (UniProt P49840)
# CSNK1G1 (human) = CSNK1G1 (human) (UniProt Q9HCP0)
# MAP4K3 (human) = MAP4K3 (human) (UniProt Q8IVH8)
# MAPK9 (human) = MAPK9 (human) (UniProt P45984)
# PDGFRB (human) = PDGFRB (human) (UniProt P09619)
# ULK2 (human) = ULK2 (human) (UniProt Q8IYT8)
# PLK3 (human) = PLK3 (human) (UniProt Q9H4B4)
# BTK (human) = BTK (human) (UniProt Q06187)
# MLTK (human) = MLTK (human) (UniProt Q9NYL2)
# ROCK2 (human) = ROCK2 (human) (UniProt O75116)
# STK39 (human) = STK39 (human) (UniProt Q9UEW8)
# HIPK3 (human) = HIPK3 (human) (UniProt Q9H422)
# HIPK3 (human), sequence (Q9H422 whole entry, looked up): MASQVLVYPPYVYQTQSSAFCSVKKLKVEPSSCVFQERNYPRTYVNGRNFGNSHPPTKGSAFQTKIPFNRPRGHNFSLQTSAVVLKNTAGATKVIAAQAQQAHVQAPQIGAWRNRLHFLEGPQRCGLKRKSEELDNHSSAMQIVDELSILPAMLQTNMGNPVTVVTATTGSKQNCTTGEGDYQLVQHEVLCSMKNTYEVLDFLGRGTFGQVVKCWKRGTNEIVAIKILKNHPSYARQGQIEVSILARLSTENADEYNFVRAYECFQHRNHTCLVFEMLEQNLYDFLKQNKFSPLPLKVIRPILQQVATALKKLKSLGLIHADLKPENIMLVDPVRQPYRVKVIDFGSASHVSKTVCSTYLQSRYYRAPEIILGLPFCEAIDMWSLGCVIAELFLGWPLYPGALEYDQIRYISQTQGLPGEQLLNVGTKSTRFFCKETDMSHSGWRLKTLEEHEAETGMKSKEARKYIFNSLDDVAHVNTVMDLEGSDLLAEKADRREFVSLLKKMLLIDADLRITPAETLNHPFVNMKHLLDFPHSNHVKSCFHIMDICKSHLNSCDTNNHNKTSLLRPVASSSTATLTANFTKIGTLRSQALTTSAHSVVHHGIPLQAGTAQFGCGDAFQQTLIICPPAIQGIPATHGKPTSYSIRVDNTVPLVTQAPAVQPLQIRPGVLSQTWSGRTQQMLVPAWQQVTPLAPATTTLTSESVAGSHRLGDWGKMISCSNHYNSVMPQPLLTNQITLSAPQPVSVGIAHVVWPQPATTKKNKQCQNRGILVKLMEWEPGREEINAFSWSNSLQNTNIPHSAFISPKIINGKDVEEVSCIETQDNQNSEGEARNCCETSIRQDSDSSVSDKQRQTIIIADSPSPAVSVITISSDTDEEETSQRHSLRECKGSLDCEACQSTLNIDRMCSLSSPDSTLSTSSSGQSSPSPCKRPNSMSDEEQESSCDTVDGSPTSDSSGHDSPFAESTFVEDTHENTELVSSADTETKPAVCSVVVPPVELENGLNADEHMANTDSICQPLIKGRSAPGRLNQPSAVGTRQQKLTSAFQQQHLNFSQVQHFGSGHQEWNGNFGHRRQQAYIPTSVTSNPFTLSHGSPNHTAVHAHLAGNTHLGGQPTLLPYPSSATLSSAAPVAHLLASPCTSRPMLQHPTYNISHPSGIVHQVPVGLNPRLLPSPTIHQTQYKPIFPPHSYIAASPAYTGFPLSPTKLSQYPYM
# LIMK1 (human) = LIMK1 (human) (UniProt P53667)
# PIP4K2C (human) = PIP4K2C (human) (UniProt Q8TBX8)
# ULK1 (human) = ULK1 (human) (UniProt O75385)
# RPS6KA2 KD1 (human) = RPS6KA2 KD1 (human) (UniProt Q15349)
# RPS6KA2 KD1 (human), sequence (Q15349 whole entry, looked up): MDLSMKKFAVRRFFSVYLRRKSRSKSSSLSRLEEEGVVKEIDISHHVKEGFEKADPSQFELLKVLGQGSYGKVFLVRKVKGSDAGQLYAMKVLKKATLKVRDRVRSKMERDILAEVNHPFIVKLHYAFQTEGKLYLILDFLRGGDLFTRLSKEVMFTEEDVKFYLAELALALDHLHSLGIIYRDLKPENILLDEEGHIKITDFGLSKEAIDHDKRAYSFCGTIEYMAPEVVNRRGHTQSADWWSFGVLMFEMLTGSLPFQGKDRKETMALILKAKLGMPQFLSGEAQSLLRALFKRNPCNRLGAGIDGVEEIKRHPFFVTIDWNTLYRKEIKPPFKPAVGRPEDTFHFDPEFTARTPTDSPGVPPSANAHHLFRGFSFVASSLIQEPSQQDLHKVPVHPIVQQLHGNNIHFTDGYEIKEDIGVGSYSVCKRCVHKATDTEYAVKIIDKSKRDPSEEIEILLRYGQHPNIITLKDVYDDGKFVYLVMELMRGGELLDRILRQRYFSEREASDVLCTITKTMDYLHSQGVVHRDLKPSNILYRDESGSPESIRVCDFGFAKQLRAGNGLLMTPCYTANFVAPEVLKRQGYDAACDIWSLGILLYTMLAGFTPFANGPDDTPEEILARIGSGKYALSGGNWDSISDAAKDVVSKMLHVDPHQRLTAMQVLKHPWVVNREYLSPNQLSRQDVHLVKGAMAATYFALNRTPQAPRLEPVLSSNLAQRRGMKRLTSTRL
# MARK3 (human) = MARK3 (human) (UniProt P27448)
# MARK3 (human), sequence (P27448 whole entry, looked up): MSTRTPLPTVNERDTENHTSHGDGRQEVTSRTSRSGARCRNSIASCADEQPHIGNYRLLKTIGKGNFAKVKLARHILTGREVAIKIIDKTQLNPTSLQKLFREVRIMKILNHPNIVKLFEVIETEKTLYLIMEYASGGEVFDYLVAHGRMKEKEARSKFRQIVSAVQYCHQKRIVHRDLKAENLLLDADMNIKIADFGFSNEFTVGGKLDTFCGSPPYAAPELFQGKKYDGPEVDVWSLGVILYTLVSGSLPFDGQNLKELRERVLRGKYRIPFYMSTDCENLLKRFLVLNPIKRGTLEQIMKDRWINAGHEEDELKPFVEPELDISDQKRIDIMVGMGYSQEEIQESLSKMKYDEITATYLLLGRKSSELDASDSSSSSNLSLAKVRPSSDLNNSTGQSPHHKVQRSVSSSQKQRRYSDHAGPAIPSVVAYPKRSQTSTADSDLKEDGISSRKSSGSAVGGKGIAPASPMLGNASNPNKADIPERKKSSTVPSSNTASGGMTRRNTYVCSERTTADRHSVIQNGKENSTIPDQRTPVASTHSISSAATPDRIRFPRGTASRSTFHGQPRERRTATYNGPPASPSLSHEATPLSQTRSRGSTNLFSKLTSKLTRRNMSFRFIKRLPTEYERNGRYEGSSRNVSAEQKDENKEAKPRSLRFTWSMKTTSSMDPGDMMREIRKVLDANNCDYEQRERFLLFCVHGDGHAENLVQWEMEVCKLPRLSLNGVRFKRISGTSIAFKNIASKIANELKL
# PIP4K2B (human) = PIP4K2B (human) (UniProt P78356)
# ERBB4 (human) = ERBB4 (human) (UniProt Q15303)
# TGFBR1 (human) = TGFBR1 (human) (UniProt P36897)
# DSTYK (human) = DSTYK (human) (UniProt Q6XUX3)
# NEK1 (human), sequence (Q96PY6 whole entry, looked up): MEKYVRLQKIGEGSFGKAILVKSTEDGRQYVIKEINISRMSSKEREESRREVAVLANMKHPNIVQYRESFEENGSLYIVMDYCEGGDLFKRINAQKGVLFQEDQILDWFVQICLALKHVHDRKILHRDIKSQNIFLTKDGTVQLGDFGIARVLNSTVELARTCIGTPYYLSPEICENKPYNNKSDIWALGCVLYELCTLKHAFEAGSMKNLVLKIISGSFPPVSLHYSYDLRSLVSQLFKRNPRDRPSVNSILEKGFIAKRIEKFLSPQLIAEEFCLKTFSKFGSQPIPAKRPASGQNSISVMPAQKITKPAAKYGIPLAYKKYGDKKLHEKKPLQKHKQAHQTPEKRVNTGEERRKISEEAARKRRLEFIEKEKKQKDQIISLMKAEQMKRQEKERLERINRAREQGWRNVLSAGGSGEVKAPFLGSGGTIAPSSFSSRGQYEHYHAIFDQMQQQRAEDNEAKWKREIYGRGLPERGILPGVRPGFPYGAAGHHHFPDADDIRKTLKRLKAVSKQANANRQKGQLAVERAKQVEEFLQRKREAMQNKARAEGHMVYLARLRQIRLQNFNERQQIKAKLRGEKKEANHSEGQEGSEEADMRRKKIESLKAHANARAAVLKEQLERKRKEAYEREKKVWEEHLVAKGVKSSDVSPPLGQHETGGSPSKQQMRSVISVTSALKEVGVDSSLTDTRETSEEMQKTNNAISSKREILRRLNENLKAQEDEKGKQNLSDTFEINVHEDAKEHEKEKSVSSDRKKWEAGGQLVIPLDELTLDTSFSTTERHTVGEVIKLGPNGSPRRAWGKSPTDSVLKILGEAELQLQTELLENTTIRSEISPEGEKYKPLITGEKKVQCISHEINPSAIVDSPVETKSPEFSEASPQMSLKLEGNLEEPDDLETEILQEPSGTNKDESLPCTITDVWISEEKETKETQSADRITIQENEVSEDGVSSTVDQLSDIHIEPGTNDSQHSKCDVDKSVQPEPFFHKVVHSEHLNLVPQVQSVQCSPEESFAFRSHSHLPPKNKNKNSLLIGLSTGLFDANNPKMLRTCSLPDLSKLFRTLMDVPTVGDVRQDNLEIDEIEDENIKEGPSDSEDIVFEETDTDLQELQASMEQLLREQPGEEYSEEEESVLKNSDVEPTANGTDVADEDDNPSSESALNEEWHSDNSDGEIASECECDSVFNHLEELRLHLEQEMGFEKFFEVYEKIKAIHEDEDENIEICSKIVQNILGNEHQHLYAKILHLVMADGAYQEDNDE
# CDK19 (human), sequence (Q9BWU1 whole entry, looked up): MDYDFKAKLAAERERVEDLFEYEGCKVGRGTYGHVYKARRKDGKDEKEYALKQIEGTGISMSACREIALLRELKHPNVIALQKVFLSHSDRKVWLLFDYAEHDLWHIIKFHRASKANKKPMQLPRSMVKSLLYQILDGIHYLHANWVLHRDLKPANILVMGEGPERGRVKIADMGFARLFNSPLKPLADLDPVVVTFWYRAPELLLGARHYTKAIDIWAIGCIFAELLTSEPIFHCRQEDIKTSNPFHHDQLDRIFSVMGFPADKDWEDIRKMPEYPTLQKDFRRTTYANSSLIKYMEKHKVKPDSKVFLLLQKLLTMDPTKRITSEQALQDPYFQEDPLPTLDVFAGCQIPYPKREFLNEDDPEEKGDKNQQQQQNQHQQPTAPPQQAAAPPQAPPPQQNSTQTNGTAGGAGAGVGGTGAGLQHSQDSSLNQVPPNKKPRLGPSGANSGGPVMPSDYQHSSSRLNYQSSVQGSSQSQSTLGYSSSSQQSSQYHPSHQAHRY
smiles,measurement,setting,value
N#Cc1cc(-c2ccnc(Nc3ccc(-n4cnc(-c5cccnc5)n4)cc3)n2)cc(N2CCOCC2)c1,"kinase still bound, per cent of control",TAOK1 (human),20%
same,"kinase still bound, per cent of control",CDK19 (human),88%
same,"kinase still bound, per cent of control",PI4KB (human),100%
same,"kinase still bound, per cent of control",NEK1 (human),57%
same,"kinase still bound, per cent of control",DYRK1A (human),3.1%
same,"kinase still bound, per cent of control",AURKA (human),93%
same,"kinase still bound, per cent of control",PRKACA (human),89%
same,"kinase still bound, per cent of control",NIM1 (human),58%
same,"kinase still bound, per cent of control",HUNK (human),42%
same,"kinase still bound, per cent of control",RPS6KA1 KD2 (human),77%
same,"kinase still bound, per cent of control",EGFR (human),71%
same,"kinase still bound, per cent of control",[1],51%
same,"kinase still bound, per cent of control",[2],0.95%
same,"kinase still bound, per cent of control",CDC2L2 (human),25%
same,"kinase still bound, per cent of control",MAP3K2 (human),31%
same,"kinase still bound, per cent of control",FYN (human),83%
same,"kinase still bound, per cent of control",MYLK2 (human),56%
same,"kinase still bound, per cent of control",EPHA5 (human),91%
same,"kinase still bound, per cent of control",ROS1 (human),17%
same,"kinase still bound, per cent of control",GSK3A (human),3.5%
same,"kinase still bound, per cent of control",CSNK1G1 (human),92%
same,"kinase still bound, per cent of control",MAP4K3 (human),6.3%
same,"kinase still bound, per cent of control",MAPK9 (human),0.1%
same,"kinase still bound, per cent of control",PDGFRB (human),8.2%
same,"kinase still bound, per cent of control",ULK2 (human),90%
same,"kinase still bound, per cent of control",PLK3 (human),93%
same,"kinase still bound, per cent of control",BTK (human),74%
same,"kinase still bound, per cent of control",MLTK (human),17%
same,"kinase still bound, per cent of control",ROCK2 (human),25%
same,"kinase still bound, per cent of control",STK39 (human),100%
same,"kinase still bound, per cent of control",HIPK3 (human),5.5%
same,"kinase still bound, per cent of control",LIMK1 (human),62%
same,"kinase still bound, per cent of control",PIP4K2C (human),2.8%
same,"kinase still bound, per cent of control",ULK1 (human),37%
same,"kinase still bound, per cent of control",RPS6KA2 KD1 (human),73%
same,"kinase still bound, per cent of control",MARK3 (human),100%
same,"kinase still bound, per cent of control",PIP4K2B (human),6.9%
same,"kinase still bound, per cent of control",ERBB4 (human),91%
same,"kinase still bound, per cent of control",TGFBR1 (human),73%
same,"kinase still bound, per cent of control",DSTYK (human),76%
